One assay has as its target PIM1 (Homo sapiens (Human), UniProt P11309). Description: Pim kinase inhibition, PIM1 LC3K (Example 901). In kind it is biochemical.
The test system of the next assay is BaF3 parental cells. Description: In vitro cell proliferation, BaF3 parental line + IL3 (CellTiter-Glo). In kind it is cell-based, murine. The settings on record: Mus musculus, BaF3, BaF3 parental cells with IL-3, incubated overnight; read-out: Prolif BaF3 + IL3 (IC50). For orientation: Cellular ATP, detected with luciferase, serves as a proxy for viable cell number.

The subject of another assay is BaF3 PIM1 cells. Description: cells. To be noted: Mus musculus, BaF3, read-out: Prolif BaF3_PIM1 (IC50), BaF3 PIM1 cells, incubated overnight.
Assay [1] relates to MM1.S (multiple myeloma) cells. The assay can be described thus: In vitro cell proliferation, MM1.S multiple myeloma cells (CellTiter-Glo, ATP). It counts as cell-based. The settings on record: Homo sapiens, MM1.S, 72 h, read-out: Prolif MM1S ATP (EC50). A digest of the protocol:
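BaF3 parental cells (medium with 2 ng/mL mIL-3) seeded at 2 k/well and MM1.S at 10 k/well, then exposed to test compound at 37° C, 5% CO2: BaF3 overnight, MM1.S for 72 hours. Viability read by CellTiter-Glo; IC50/EC50 values calculated.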

Chain of PIM1 (P11309 whole entry): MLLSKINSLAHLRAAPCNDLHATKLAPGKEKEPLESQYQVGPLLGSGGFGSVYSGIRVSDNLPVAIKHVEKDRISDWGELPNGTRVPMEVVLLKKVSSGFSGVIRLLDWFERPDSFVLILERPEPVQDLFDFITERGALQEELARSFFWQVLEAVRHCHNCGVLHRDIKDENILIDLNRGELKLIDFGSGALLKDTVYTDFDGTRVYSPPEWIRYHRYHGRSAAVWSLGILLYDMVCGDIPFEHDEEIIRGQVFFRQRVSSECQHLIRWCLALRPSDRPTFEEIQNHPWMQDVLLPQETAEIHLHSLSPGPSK
Method for BaF3 PIM1 cells: BaF3 parental line was obtained from the DSMZ repository. BaF3 lines transfected with PIM 1 or PIM2 were generated. Mouse IL-3 was purchased from R&D Systems. G418 was purchased from Clontech. Media for BaF3 parental line contained RPMI, 10% FBS, 2 mM L-Glutamine, 2 ng/mL mIL-3. Media for BaF3 PIM1 & 2 lines contained RPMI, 10% FBS, 2 mM L-Glutamine, 250 μg/mL.
BaF3, a murine interleukin-3 dependent pro-B cell line, parental cells, BaF3 PIM1 cells, BaF3 PIM2 cells, and MM1.S (multiple myeloma) cells were seeded at 2 k/well, 5 k/well, 5 k/well, and 10 k/well respectively, in a 384-well plate, at 45 μL/well. Test compound was added at 5 μL/well. BaF3 cells (parental and transfected) were incubated overnight, while MM1.S cells were incubated for 72 hours at 37° C., 5% CO2. CELL TITER GLO® Reagent (Promega) was added at 50 μL/well, the plates were incubated for 30 minutes, and their luminescence read on an HT Analyst. IC50/EC50 values for the test compound were calculated.

`COC1CCN(c2c(NC(=O)c3nc(-c4cc(F)ccc4F)sc3N)cnn2C)CCC1N` (stereo not shown) [Example 326, 5-amino-N-[5-(4-amino-5-methoxy-azepan-1-yl)-1-methyl-pyrazol-4-yl]-2-(2,5-difluorophenyl)thiazole-4-carboxamide]: on PIM1, the affinity, expressed as Ki, was 0.384 nM. The IC50 (as a rule, the midpoint of a concentration-inhibition curve) with BaF3 parental cells was 17400 nM; in the assay with BaF3 PIM1 cells, 73.5 nM. Moreover, the EC50 (as a rule, the concentration at which the effect is half-maximal) in assay [1] came out at 185 nM.
Take `Cc1ccc(F)c(-c2nc(C(=O)Nc3cnn(C4CC4)c3N3CCC(N)C(F)CC3)c(N)s2)c1` (stereo not shown) [Example 329, 5-amino-N-[5-(4-amino-5-fluoro-azepan-1-yl)-1-cyclopropyl-pyrazol-4-yl]-2-(2-fluoro-5-methyl-phenyl)thiazole-4-carboxamide]: the Ki (in general, a measure of affinity in units of concentration, obtained from inhibition or displacement) at PIM1 came out at 0.248 nM. Further, the IC50 was found to be 4600 nM in the assay with BaF3 parental cells and 1300 nM in the assay on BaF3 PIM1 cells. Further, the EC50 in assay [1] is 2800 nM.
For `Nc1sc(-c2c(F)cccc2F)nc1C(=O)Nc1cnn(C2CC2)c1N1CC[C@H](N)CC(F)(F)C1` [Example 344, 5-amino-N-[5-[(5S)-5-amino-3,3-difluoro-azepan-1-yl]-1-cyclopropyl-pyrazol-4-yl]-2-(2,6-difluorophenyl)thiazole-4-carboxamide], the Ki on PIM1 stood at 0.01 nM. Moreover, the IC50 in the assay with BaF3 parental cells was determined as 5200 nM; with BaF3 PIM1 cells, 83.6 nM. In addition, the EC50 in assay [1] is 1200 nM.
`Nc1sc(-c2c(F)cccc2F)nc1C(=O)Nc1cnn(C2CC2)c1N1CC[C@@H](N)CC(F)(F)C1` [Example 345, 5-amino-N-[5-[(5R)-5-amino-3,3-difluoro-azepan-1-yl]-1-cyclopropyl-pyrazol-4-yl]-2-(2,6-difluorophenyl)thiazole-4-carboxamide]: affinity on PIM1 was put at a Ki of 0.007 nM. Besides, the IC50 was found to be 8400 nM in the assay on BaF3 parental cells and 81.3 nM in the assay with BaF3 PIM1 cells. Besides, in assay [1], the EC50 was determined as 136 nM.
At PIM1, `COc1ncccc1-c1nc(C(=O)Nc2cnn(C)c2N2CCC[C@H](N)CC2)c(N)s1` [Example 418, 5-amino-N-[5-[(4S)-4-aminoazepan-1-yl]-1-methyl-pyrazol-4-yl]-2-(2-methoxy-3-pyridyl)thiazole-4-carboxamide] returned a Ki of 1.08 nM. Further, the figures for the half-maximal inhibitory concentration (IC50) with BaF3 parental cells and in the assay with BaF3 PIM1 cells were more than 25000 nM and 1400 nM, respectively. Moreover, the EC50 in assay [1] is 7000 nM.
Regarding `Cn1ncc(NC(=O)c2nc(-c3ccncc3F)sc2N)c1N1CC[C@H](N)[C@@H](F)CC1` [Example 422, 5-amino-N-(5-((4S,5S)-4-amino-5-fluoroazepan-1-yl)-1-methyl-1H-pyrazol-4-yl)-2-(3-fluoropyridin-4-yl)thiazole-4-carboxamide], at PIM1, the Ki came out at 0.38 nM. For the same molecule, the IC50 in the assay on BaF3 parental cells is more than 25000 nM; in the assay with BaF3 PIM1 cells it was 340 nM. Further, in assay [1], the EC50 worked out at 3800 nM.
In the same order, the values of `Cn1ncc(NC(=O)c2nc(-c3ccncc3F)sc2N)c1N1CC[C@@H](N)CC(F)(F)C1` [Example 447, 5-amino-N-[5-[(5R)-5-amino-3,3-difluoro-azepan-1-yl]-1-methyl-pyrazol-4-yl]-2-(3-fluoro-4-pyridyl)thiazole-4-carboxamide] are 0.014 nM, 12900 nM, 6.97 nM and 571 nM.
Consider `Cn1ncc(NC(=O)c2nc(-c3c(F)cncc3F)sc2N)c1N1CC[C@@H](N)CC(F)(F)C1` [Example 455, 5-amino-N-[5-[(5R)-5-amino-3,3-difluoro-azepan-1-yl]-1-methyl-pyrazol-4-yl]-2-(3,5-difluoro-4-pyridyl)thiazole-4-carboxamide], for which the Ki on PIM1 is 0.009 nM. For the same molecule, the IC50 in the assay on BaF3 parental cells turned out to be 3900 nM; in the assay with BaF3 PIM1 cells, 2.57 nM. Besides, the EC50 in assay [1] turned out to be 221 nM.
Turning to `COc1cc(F)c(-c2nc(C(=O)Nc3cnn(C)c3N3CCC(N)CC(F)(F)C3)c(N)s2)c(F)c1` (stereo not shown) [Example 459, 5-amino-N-[5-(5-amino-3,3-difluoro-azepan-1-yl)-1-methyl-pyrazol-4-yl]-2-(2,6-difluoro-4-methoxy-phenyl)thiazole-4-carboxamide], the affinity at PIM1 corresponds to a Ki of 0.006 nM. For the same molecule, the IC50 with BaF3 parental cells turned out to be 7500 nM; in the assay with BaF3 PIM1 cells it was 6.84 nM. For the same molecule, in assay [1], the EC50 turned out to be 492 nM.
In the case of `Cc1c(-c2nc(C(=O)Nc3cnn(C)c3N3CCC(N)CC(F)(F)C3)c(N)s2)cnn1C` (stereo not shown) [Example 460, 5-amino-N-[5-(5-amino-3,3-difluoro-azepan-1-yl)-1-methyl-pyrazol-4-yl]-2-(1,5-dimethylpyrazol-4-yl)thiazole-4-carboxamide], the Ki on PIM1 was 0.026 nM. In addition, the IC50 with BaF3 parental cells is more than 25000 nM; with BaF3 PIM1 cells, 36.4 nM. For the same molecule, the EC50 in assay [1] amounted to 215 nM.
Consider `Cn1ncc(NC(=O)c2nc(-c3cccc(C#N)n3)sc2N)c1N1CC[C@@H](N)CC(F)(F)C1` [Example 461, 5-amino-N-[5-[(5R)-5-amino-3,3-difluoro-azepan-1-yl]-1-methyl-pyrazol-4-yl]-2-(6-cyano-2-pyridyl)thiazole-4-carboxamide], for which the affinity on PIM1, expressed as Ki, was 0.08 nM. Moreover, the IC50 with BaF3 parental cells is 16600 nM; with BaF3 PIM1 cells it was 39.7 nM. Moreover, the EC50 in assay [1] is 211 nM.
The molecule `Cc1nn(C)cc1-c1nc(C(=O)Nc2cnn(C)c2N2CC[C@@H](N)CC(F)(F)C2)c(N)s1` [Example 462, 5-amino-N-[5-[(5R)-5-amino-3,3-difluoro-azepan-1-yl]-1-methyl-pyrazol-4-yl]-2-(1,3-dimethylpyrazol-4-yl)thiazole-4-carboxamide] displayed a Ki on PIM1 of 0.03 nM. The IC50 in the assay with BaF3 parental cells stood at 8000 nM; in the assay with BaF3 PIM1 cells it was 32.6 nM. Besides, in assay [1], the EC50 stood at 1200 nM.
Regarding `Cc1c(-c2nc(C(=O)Nc3cnn(C)c3N3CC[C@@H](N)CC(F)(F)C3)c(N)s2)cnn1C` [Example 463, 5-amino-N-[5-[(5R)-5-amino-3,3-difluoro-azepan-1-yl]-1-methyl-pyrazol-4-yl]-2-(1,5-dimethylpyrazol-4-yl)thiazole-4-carboxamide], at PIM1, the affinity, expressed as Ki, was 0.018 nM. The IC50 is more than 25000 nM with BaF3 parental cells and 58.4 nM in the assay on BaF3 PIM1 cells. The EC50 in assay [1] worked out at 108 nM.
In the same order, the values of `Cc1cc(-c2nc(C(=O)Nc3cnn(C)c3N3CC[C@@H](N)CC(F)(F)C3)c(N)s2)ccn1` [Example 464, 5-amino-N-[5-[(5R)-5-amino-3,3-difluoro-azepan-1-yl]-1-methyl-pyrazol-4-yl]-2-(2-methyl-4-pyridyl)thiazole-4-carboxamide] are 0.06 nM, 15900 nM, 11.9 nM and 467 nM.
In the same order, the values of `COC1(C)CC(N)CCN(c2c(NC(=O)c3nc(-c4c(F)cncc4F)sc3N)cnn2C)C1` (stereo not shown) [Example 473, 5-amino-N-[5-(5-amino-3-methoxy-3-methyl-azepan-1-yl)-1-methyl-pyrazol-4-yl]-2-(3,5-difluoro-4-pyridyl)thiazole-4-carboxamide] are 0.009 nM, 25000 nM, 41.1 nM and 248 nM.
Consider `COC1(C)CC(N)CCN(c2c(NC(=O)c3nc(-c4ccncc4F)sc3N)cnn2C)C1` (stereo not shown) [Example 476, 5-amino-N-[5-(5-amino-3-methoxy-3-methyl-azepan-1-yl)-1-methyl-pyrazol-4-yl]-2-(3-fluoro-4-pyridyl)thiazole-4-carboxamide], for which, at PIM1, the inhibition constant Ki came out at 0.013 nM. Moreover, the figures for the IC50 in the assay with BaF3 parental cells and in the assay on BaF3 PIM1 cells were 25000 nM and 24.5 nM, respectively. The EC50 in assay [1] worked out at 872 nM.

The values above are taken from patent US8614206B2 (Genentech, Inc., priority 2011, dated 2013).
